Experimental data: ChEMBL document CHEMBL1123899, “Nucleic acid related compounds. 51. Synthesis and biological properties of sugar-modified analogues of the nucleoside antibiotics tubercidin, toyocamycin, sangivamycin, and formycin” (1987)
Values after ≈ are worked out from the molar mass of the structure shown.

Tested on: Vaccinia virus
Test: Minimum inhibitory concentration required to reduce vaccinia virus(VV) induced cytopathogenicity by 50%
Format: functional
Details: Orthopoxvirus vaccinia

| Structure (SMILES) | MIC50 [µg/mL] |
| --- | --- |
| N#Cc1cn(C2OC(CO)CC2O)c2ncnc(N)c12 (configuration not stated) | 0.1 (≈ 0.363 µM) |
| Nc1ncnc2c1ccn2[C@@H]1O[C@H](CO)[C@@H](O)[C@@H]1O | 40 (≈ 150 µM) |
| Nc1ncnc2c(C3OC(CO)CC3O)n[nH]c12 (configuration not stated) | > 400 |
| Nc1ncnc2c1ccn2[C@@H]1O[C@H](CO)[C@H](O)[C@H]1O | 0.03 (≈ 0.113 µM) |
| NC(=O)c1cn([C@H]2C[C@H](O)[C@@H](CO)O2)c2ncnc(N)c12 | 0.4 (≈ 1.36 µM) |
| N#Cc1cn([C@@H]2O[C@H](CO)[C@@H](O)[C@@H]2O)c2ncnc(N)c12 | 1 (≈ 3.43 µM) |
| Nc1ncnc2c([C@H]3C[C@H](O)[C@@H](CO)O3)n[nH]c12 | > 400 |
| N#Cc1cn([C@@H]2O[C@H](CO)[C@@H](O)[C@H]2O)c2ncnc(N)c12 [TOYOCAMYCIN] | > 0.04 |
| Nc1ncnc2c1ccn2[C@H]1C[C@H](O)[C@@H](CO)O1 [2'-Deoxytubercidin] | 10 (≈ 40 µM) |
| NC(=O)c1cn([C@@H]2O[C@H](CO)[C@@H](O)[C@@H]2O)c2ncnc(N)c12 | 0.2 (≈ 0.647 µM) |
| Nc1ncnc2c1ccn2C1OC(CO)CC1O (configuration not stated) | 1.5 (≈ 5.99 µM) |
| NC(=O)c1ncn([C@@H]2O[C@H](CO)[C@@H](O)[C@H]2O)n1 [RIBAVIRIN] | 20 (≈ 81.9 µM) |
| Nc1ncnc2c([C@@H]3O[C@H](CO)[C@@H](O)[C@H]3O)[nH]nc12 [FORMYCIN] | 7 (≈ 26.2 µM) |
| NC(=O)c1cn([C@@H]2O[C@H](CO)[C@@H](O)[C@H]2O)c2ncnc(N)c12 [SANGIVAMYCIN] | 0.02 (≈ 0.0647 µM) |
| Nc1ncnc2c1ccn2[C@@H]1O[C@H](CO)[C@@H](O)[C@H]1O [TUBERCIDIN] | 0.007 (≈ 0.0263 µM) |
| NC(=O)c1cn(C2OC(CO)CC2O)c2ncnc(N)c12 (configuration not stated) | 2 (≈ 6.82 µM) |
| N#Cc1cn([C@H]2C[C@H](O)[C@@H](CO)O2)c2ncnc(N)c12 | 0.1 (≈ 0.363 µM) |
